Experimental findings from US20230339871A1, “COMPOUNDS AND METHODS OF MODULATING 17B-HYDROXYSTEROID DEHYDROGENASE TYPE 13” (METREA BIOSCIENCES, INC., priority 2020, published 2023) are described below.

The test concerns the target T1, recombinant human full-length HSD17B13 protein (Homo sapiens, UniProt Q7Z5P4).
T1 construct: recombinant human full-length HSD17B13 protein; 6xHis (C); made in house; host or cells: HEK293E-253/FH
T1 sequence (Q7Z5P4 20-300): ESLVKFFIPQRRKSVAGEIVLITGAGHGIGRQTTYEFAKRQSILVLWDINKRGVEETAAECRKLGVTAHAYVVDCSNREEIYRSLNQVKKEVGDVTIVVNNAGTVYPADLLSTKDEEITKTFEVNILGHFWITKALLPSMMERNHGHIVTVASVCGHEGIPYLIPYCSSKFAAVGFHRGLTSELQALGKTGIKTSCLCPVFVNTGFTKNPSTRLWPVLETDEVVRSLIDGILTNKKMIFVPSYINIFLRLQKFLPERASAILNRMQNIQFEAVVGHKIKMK
Briefly: HSD17B13 96 luminescence inhibition assay (NAD(P)H-Glo). The class given is biochemical. The method, then:
Compounds of the present disclosure were tested for inhibition of HSD17B13 using the following protocol. Briefly, recombinant human full-length HSD17B13 protein with a 6X-C-terminal His tag was expressed in cell line HEK293E-253/FH and purified using Ni^2+-affinity purification. Enzymatic activity was determined through the production of NADH using the NAD(P)H-Glo Detection System (Promega). The inhibitory activity of test compounds was determined in reactions performed at 30° C. in assay buffer consisting of 25 mM EPPS (8.0), 125 mM NaCl, 0.03% Triton X-100, 0.03% BSA, with […] steroid substrate (1,3,5(10), 7-estratetraen-3, 17b-diol (Steraloids E0580)) added from a 2.5 mM DMSO stock and 500 mM NAD. The final percentage of DMSO was 4.5%. After a one-hour incubation, a 20% volume of luciferase Glo-reagent was added and light units captured on a Victor V Plate Reader (Perkin Elmer).
Concentration-response curves for inhibitors were normalized to control samples containing enzyme only (negative control) and sample without enzyme (positive control). 50% inhibition (IC50) values were determined using a nonlinear least squares fit of the data to a four-parameter equation using Prism 6.0 (GraphPad Software, San Diego).
Broadly, the IC50 is the concentration at which inhibition is half-maximal. Regarding `O=C1S/C(=C\c2ccc3nn[nH]c3c2)C(=O)N1Cc1cccc(O)c1` [Compound 38, (Z)-5-((1H-benzo[d][1,2,3]triazol-6-yl)methylene)-3-(3-hydroxybenzyl)thiazolidine-2,4-dione], the IC50 was not above 1000 nM.
For `O=C(c1ccc(-c2ccc(F)c(O)c2F)s1)c1ccc(F)c(O)c1F` [Compound 32, (2,4-difluoro-3-hydroxyphenyl)(5-(2,4-difluoro-3-hydroxyphenyl)thiophen-2-yl)methanone], the IC50 was in the range of 1000 to 5000 nM.
The result for `COc1ccc(CN2C(=O)S/C(=C\c3c(F)cc(F)c(O)c3F)C2=O)cn1` [Compound 23, (Z)-3-((6-methoxypyridin-3-yl)methyl)-5-(2,4,6-trifluoro-3-hydroxybenzylidene)thiazolidine-2,4-dione] reads 1000 to 5000 nM.
`O=C1S/C(=C\c2cc(F)c(F)c(O)c2F)C(=O)N1Cc1cccc(O)c1` [Compound 3, (Z)-3(3-hydroxybenzyl)-5-(2,4,5-trifluoro-3-hydroxybenzylidene)thiazolidine-2,4-dione]: the IC50 fell in the range of 1000 to 5000 nM.
For `O=C1O/C(=C\c2ccc(F)c(O)c2)C(=O)N1CC1CCOCC1` [Compound 13, (Z)-5-(4-fluoro-3-hydroxybenzylidene)-3-((tetrahydro-2H-pyran-4-yl)methyl) oxazolidine-2,4-dione], the IC50 lay within 1000 to 5000 nM.
Next, `NS(=O)(=O)c1cccc(CN2C(=O)S/C(=C\c3c(F)cc(F)c(O)c3F)C2=O)c1` [Compound 34, (Z)-3-((2,4-dioxo-5-(2,4,6-trifluoro-3-hydroxybenzylidene)thiazolidin-3-yl)methyl)benzenesulfonamide]: not above 1000 nM.
The result for `O=C1S/C(=C\c2ccc(F)c(O)c2)C(=O)N1Cc1ccc(F)c(F)c1` [Compound 2, (Z)-3-(3,4-difluorobenzyl)-5-(4-fluoro-3-hydroxybenzylidene)thiazolidine-2,4-dione] reads 1000 to 5000 nM; that for `O=C1S/C(=C\c2ccc(F)c(O)c2)C(=O)N1Cc1cc(O)ccc1F` [Compound 8, (Z)-5-(4-fluoro-3-hydroxybenzylidene)-3-(2-fluoro-5-hydroxybenzyl)thiazolidine-2,4-dione], 1000 to 5000 nM.
Next, `O=C(NCc1cccc(O)c1)c1cc2cc(O)c(F)cc2cn1` [Compound 26, 7-fluoro-6-hydroxy-N-(3-hydroxybenzyl)isoquinoline-3-carboxamide]: more than 5000 nM.
As for `O=C(c1ccc(-c2ccc(F)c(O)c2F)s1)c1c(F)cc(F)c(O)c1F` [Compound 29, (5-(2,4-difluoro-3-hydroxyphenyl)thiophen-2-yl)(2,4,6-trifluoro-3-hydroxyphenyl)methanone], the IC50 lay in the range of 1000 to 5000 nM.
Next, `O=C1S/C(=C\c2ccc(F)c(O)c2)C(=O)N1Cc1cccc(C(F)(F)F)c1` [Compound 17, (Z)-5-(4-fluoro-3-hydroxybenzylidene)-3-(3-(trifluoromethyl)benzyl)thiazolidine-2,4-dione]: 1000 to 5000 nM; `O=C1S/C(=C\c2c(F)cc(F)c(O)c2F)C(=O)N1Cc1ccc(=O)[nH]c1` [Compound 35, (5Z)-3-[(6-oxo-1,6-dihydropyridin-3-yl)methyl]-5-[(2,4,6-trifluoro-3-hydroxyphenyl)methylidene]-1,3-thiazolidine-2,4-dione]: not above 1000 nM.
Next, `COc1cc(CN2C(=O)S/C(=C\c3c(F)cc(F)c(O)c3F)C2=O)ccn1` [Compound 22, (Z)-3-((2-methoxypyridin-4-yl)methyl)-5-(2,4,6-trifluoro-3-hydroxybenzylidene) thiazolidine-2,4-dione]: not above 1000 nM; `O=C1S/C(=C\c2c(F)cc(F)c(O)c2F)C(=O)N1Cc1cc[nH]c(=O)c1` [Compound 36, (Z)-3-((2-oxo-1,2-dihydropyridin-4-yl)methyl)-5-(2,4,6-trifluoro-3-hydroxybenzylidene)thiazolidine-2,4-dione]: 1000 to 5000 nM; `N#Cc1cccc(CN2C(=O)S/C(=C\c3ccc(F)c(O)c3)C2=O)c1` [Compound 19, (Z)-3-((5-(4-fluoro-3-hydroxybenzylidene)-2,4-dioxothiazolidin-3-yl)methyl) benzonitrile]: 1000 to 5000 nM.
